Source: the NIST ThermoML archive (doi:10.1016/j.jct.2016.05.027)
± gives the expanded uncertainty stated by the source.

What was measured:
[1] = Crystal
[2] = Molar enthalpy of transition or fusion; settings: Crystal; DSC

- mass density ([1]; 298.15 K, 101.33 kPa, flotation method): 1242.4 ± 2.6 kg/m3
- Normal melting temperature ([1]; DTA): 93.60 ± 1.1 °C
- Molar enthalpy of transition or fusion [2]: 24.1 ± 0.94 kJ/mol
SMILES: Cc1cccc([N+](=O)[O-])c1N [2-methyl-6-nitroaniline]
